Earlier results on 56 molecules are cited in article PMC9788431, “Combination of Docking-Based and Pharmacophore-Based Virtual Screening Identifies Novel Agonists That Target the Urotensin Receptor” (Molecules, 2022).

pEC50: −log10 of the molar value. Values joined by “and” are separate entries in the source; they are usually repeats but may differ in a detail not shown here. Equal values may be shown once. Non-standard residues stand in square brackets, D forms with d. Residues, ends and D or L forms follow the SMILES beside them.

The series has as its target T1, UT receptor (Homo sapiens, UniProt Q9UKP6).
T1 construct: SNAP-tag; expressed in transfected cells; host or cells: 293A8 (HEK293A stably transfected with the UT receptor); inferred, the calcium-assay paragraph names no cells
T1 sequence (Q9UKP6 1-389): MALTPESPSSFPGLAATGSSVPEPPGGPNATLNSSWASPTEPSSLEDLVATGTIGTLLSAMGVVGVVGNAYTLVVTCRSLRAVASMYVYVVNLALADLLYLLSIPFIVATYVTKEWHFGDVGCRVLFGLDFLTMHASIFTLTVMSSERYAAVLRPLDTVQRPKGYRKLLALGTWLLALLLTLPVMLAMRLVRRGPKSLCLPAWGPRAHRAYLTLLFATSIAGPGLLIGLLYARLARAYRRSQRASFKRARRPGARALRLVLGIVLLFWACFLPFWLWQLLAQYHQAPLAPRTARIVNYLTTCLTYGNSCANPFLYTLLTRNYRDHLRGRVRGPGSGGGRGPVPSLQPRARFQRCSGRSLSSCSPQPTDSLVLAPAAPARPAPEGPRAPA
The following applies: agonist; Table S1 benchmarking ligands; ref ChEMBL database and others; cited from earlier work.

The pEC50 is the negative decadic logarithm of the EC50, by convention in mol/L. Take `CC(C)[C@H](NC(=O)[C@H](CS)NC(=O)[C@H](Cc1ccc(O)cc1)NC(=O)[C@H](CCCCN)NC(=O)[C@H](Cc1c[nH]c2ccccc12)NC(=O)[C@H](Cc1ccccc1)NC(=O)[C@@H](N)CS)C(=O)O` [CHEMBL53181] (H-CFWKYCV-OH): the pEC50 is 8.74.

`CN(C)CCC(OC(=O)Nc1ccc(C(F)(F)F)cc1)c1ccc(Cl)cc1` (centres unmarked) [CHEMBL203051]: the negative logarithm of the EC50 (pEC50) is 6.60.

As to `CN(C)CCC(NC(=O)c1ccc(Oc2ccccc2)cc1)c1ccc(Cl)cc1` (centres unmarked) [CHEMBL203626], the pEC50 is 7.18.

As to `CN(C)CCC(OC(=O)Nc1ccc2ccccc2c1)c1ccc(Cl)cc1` (centres unmarked) [CHEMBL203937], the pEC50 is 6.28.

Take `CN(C)CCC(NC(=O)c1ccc(C(F)(F)F)cc1)c1ccc(Cl)cc1` (centres unmarked) [CHEMBL204988]: the pEC50 was 7.11.

For the molecule `CN(C)CCC(NC(=O)Nc1ccc(C(C)(C)C)cc1)c1ccc(Cl)cc1` (centres unmarked) [CHEMBL205681], the pEC50 was 6.56.

Consider `CN(C)CCC(OC(=O)c1ccc(-c2ccccc2)cc1)c1ccc(Cl)cc1` (centres unmarked) [CHEMBL205991], for which the pEC50 was 6.28.

Consider `CN(C)CCC(NC(=O)Nc1ccc2ccccc2c1)c1ccc(Cl)cc1` (centres unmarked) [CHEMBL206551], for which the pEC50 is 6.54.

For `CN(C)CCC(NC(=O)Nc1ccc(-c2ccccc2)cc1)c1ccc(Cl)cc1` (centres unmarked) [CHEMBL206811], the pEC50 is 6.84.

As to `Cc1cc(C)c(C(=O)OC(CCN(C)C)c2ccc(Cl)cc2)cc1C` (centres unmarked) [CHEMBL206832], the pEC50 was 6.33.

Take `CN(C)CC[C@H](NC(=O)c1ccc2ccccc2c1)c1ccc(Cl)cc1` [CHEMBL207783]: the pEC50 was 6.39.

With `CN(C)CC[C@H](NC(=O)c1ccc(-c2ccccc2)cc1)c1ccc(Cl)cc1` [CHEMBL207823], the pEC50 is 7.49.

On to `CC(C)[C@H](NC(=O)[C@H](CS)NC(=O)[C@H](Cc1ccc(O)cc1)NC(=O)[C@H](CCCCN)NC(=O)[C@H](Cc1c[nH]c2ccccc12)NC(=O)[C@H](Cc1ccccc1)NC(=O)[C@H](CS)NC(=O)[C@H](CC(=O)O)NC(=O)[C@H]1CCCN1)C(=O)O` [CHEMBL216349] (H-[dP]DCFWKYCV-OH), for which the pEC50 is 8.44.

For the molecule `CN(C)CCC(NC(=O)/C=C/c1ccc(C(F)(F)F)cc1)c1ccc(Cl)cc1` (centres unmarked) [CHEMBL228470], the pEC50 was 6.89.

Regarding `CN(C)CCC(NC(=O)C#Cc1ccccc1)c1ccc(Cl)cc1` (centres unmarked) [CHEMBL228471], the pEC50 was 6.40.

In the case of `CN(C)CCC(NC(=O)CCc1ccccc1)c1ccc2ccccc2c1` (centres unmarked) [CHEMBL229709], the pEC50 was 6.22.

For the molecule `CN(C)CCC(NC(=O)CCc1ccc(C(F)(F)F)cc1)c1ccc2ccccc2c1` (centres unmarked) [CHEMBL229710], the pEC50 is 6.43.

As for `CN(C)CCC(NC(=O)/C=C/c1ccc(C(F)(F)F)cc1)c1ccc2ccccc2c1` (centres unmarked) [CHEMBL229713], the pEC50 was 6.87.

For `COc1ccc(/C=C/C(=O)NC(CCN(C)C)c2ccc3ccccc3c2)cc1` (centres unmarked) [CHEMBL229714], the pEC50 was 6.42.

Regarding `CN(C)CCC(NC(=O)C#Cc1ccccc1)c1ccc2ccccc2c1` (centres unmarked) [CHEMBL229764], the pEC50 was 6.34.

With `Cc1ccc(C(CCN(C)C)NC(=O)/C=C/c2ccc(C(F)(F)F)cc2)cc1` (centres unmarked) [CHEMBL229923], the pEC50 is 6.36.

`NCCCC[C@H](NC(=O)[C@H](Cc1c[nH]c2ccccc12)NC(=O)[C@H](Cc1ccccc1)NC(=O)[C@@H](N)CS)C(=O)N[C@@H](Cc1ccc(O)cc1)C(=O)N[C@@H](CS)C(N)=O` [CHEMBL298803] (H-CFWKYC-NH2): the pEC50 is 8.64.

For the molecule `CN(C)CCC(NC(=O)/C=C/c1ccccc1)c1ccc(Cl)cc1` (centres unmarked) [CHEMBL374817], the pEC50 was 6.37.

`Cc1cc2c(cc1C)C(=O)OC(CCN(C)C)(c1ccc(Cl)cc1)C2` (centres unmarked) [CHEMBL380346]: the pEC50 is 6.87.

On to `CN(C)CCC(OC(=O)Nc1ccc(Oc2ccccc2)cc1)c1ccc(Cl)cc1` (centres unmarked) [CHEMBL383326], for which the pEC50 is 6.72.

On to `CN(C)CCC(NC(=O)Nc1ccc(Oc2ccccc2)cc1)c1ccc(Cl)cc1` (centres unmarked) [CHEMBL383698], for which the pEC50 was 6.96.

With `C[C@@H](O)[C@H](NC(=O)[C@@H](N)CCC(=O)O)C(=O)N1CCC[C@@H]1C(=O)N[C@@H](CC(=O)O)C(=O)N[C@@H](CS)C(=O)N[C@@H](Cc1ccccc1)C(=O)N[C@@H](Cc1c[nH]c2ccccc12)C(=O)N[C@@H](CCCCN)C(=O)N[C@@H](Cc1ccc(O)cc1)C(=O)N[C@@H](CS)C(=O)O` [CHEMBL385616] (H-ET[dP]DCFWKYC-OH), the pEC50 was 8.74.

As for `CC(C)[C@H](NC(=O)[C@H](CS)NC(=O)[C@H](Cc1ccc(O)cc1)NC(=O)[C@H](CCCCN)NC(=O)[C@@H](Cc1c[nH]c2ccccc12)NC(=O)[C@H](Cc1ccccc1)NC(=O)[C@H](CS)NC(=O)[C@H](CC(=O)O)NC(=O)[C@H]1CCCN1C(=O)[C@@H](NC(=O)[C@@H](N)CCC(=O)O)[C@@H](C)O)C(=O)O` [CHEMBL385962], the pEC50 was 8.42.

For the molecule `COc1ccc(/C=C/C(=O)NC(CCN(C)C)c2ccc(Cl)cc2)cc1` (centres unmarked) [CHEMBL387661], the pEC50 was 6.29.

Regarding `CN(C)CCC(NC(=O)/C=C/c1ccccc1)c1ccc2ccccc2c1` (centres unmarked) [CHEMBL387694], the pEC50 is 6.23.

As for `CN(C)CCC(NC(=O)Cc1ccc(C(F)(F)F)cc1)c1ccc2ccccc2c1` (centres unmarked) [CHEMBL390792], the pEC50 was 6.24.

Consider `CC(C)[C@H](NC(=O)[C@H](CS)NC(=O)[C@H](Cc1ccc(O)cc1)NC(=O)[C@H](CCCCN)NC(=O)[C@H](Cc1c[nH]c2ccccc12)NC(=O)[C@H](Cc1ccccc1)NC(=O)[C@H](CS)NC(=O)[C@H](CC(=O)O)NC(=O)[C@H]1CCCN1C(=O)[C@@H](NC(=O)[C@@H](N)CCC(=O)O)[C@@H](C)O)C(=O)O` [CHEMBL408106], for which the pEC50 was 8.60.

As for `CC(C)[C@H](NC(=O)[C@H](CS)NC(=O)[C@H](Cc1ccc(O)cc1)NC(=O)[C@H](CCCCN)NC(=O)[C@H](Cc1c[nH]c2ccccc12)NC(=O)[C@H](CS)NC(=O)[C@H](CC(=O)O)NC(=O)[C@H]1CCCN1C(=O)[C@@H](NC(=O)[C@@H](N)CCC(=O)O)[C@@H](C)O)C(=O)O` [CHEMBL412753] (H-ET[dP]DCWKYCV-OH), the negative logarithm of the EC50 (pEC50) is 7.28.

Regarding `CC(C)[C@H](NC(=O)[C@H](CS)NC(=O)[C@H](Cc1ccc(O)cc1)NC(=O)[C@H](CCCCN)NC(=O)[C@H](Cc1c[nH]c2ccccc12)NC(=O)[C@H](Cc1ccccc1)NC(=O)[C@H](CS)NC(=O)[C@@H](N)CC(=O)O)C(=O)O` [CHEMBL414256] (H-DCFWKYCV-OH), the pEC50 is 8.52.

Consider `CN(C)CCC(NC(=O)Nc1ccc(C(F)(F)F)cc1)c1ccc(Cl)cc1` (centres unmarked) [CHEMBL425592], for which the pEC50 is 6.93.

In the case of `CC(C)[C@H](NC(=O)[C@H](CS)NC(=O)[C@H](Cc1ccc(O)cc1)NC(=O)[C@H](CCCCN)NC(=O)[C@H](Cc1c[nH]c2ccccc12)NC(=O)[C@H](Cc1ccccc1)NC(=O)[C@H](CS)NC(=O)[C@H](CC(=O)O)NC(=O)[C@H]1CCCN1C(=O)[C@@H](N)[C@@H](C)O)C(=O)O` [CHEMBL427632] (H-T[dP]DCFWKYCV-OH), the pEC50 was 8.62.

In the case of `CN(C)CCC1(c2ccc(Cl)cc2)Cc2ccccc2C(=O)O1` (centres unmarked) [CHEMBL535141], the pEC50 is 6.60 and 6.50.

With `CN(C)CCC(NC(=O)c1ccc(-c2ccc3ccccc3c2)cc1)c1ccc(Cl)cc1` (centres unmarked) [CHEMBL572391], the pEC50 is 6.51.

For `Cc1ccc(C(CCN(C)C)NC(=O)c2cccc(-c3ccccc3)c2)cc1` (centres unmarked) [CHEMBL572392], the pEC50 was 6.09.

Turning to `Cc1ccc(C(CCN(C)C)NC(=O)c2ccc(-c3ccccc3)cc2)cc1` (centres unmarked) [CHEMBL572398], the negative-log EC50 (pEC50) was 6.70.

In the case of `CN(C)CCC(NC(=O)c1ccc(-c2ccc(Cl)cc2)cc1)c1ccc2ccccc2c1` (centres unmarked) [CHEMBL572439], the pEC50 is 7.36.

With `CO[C@@H](C(=O)N[C@@H](CCN(C)C)c1ccc2ccccc2c1)c1ccccc1` [CHEMBL572454], the pEC50 is 6.13.

With `O=C(NC(CCN1CCCCC1)c1ccc(Cl)cc1)c1ccc(-c2ccccc2)cc1` (centres unmarked) [CHEMBL572467], the pEC50 is 6.18.

For the molecule `CN(C)CCC(NC(=O)c1ccc(-c2ccc(Cl)cc2)cc1)c1ccc(Cl)cc1` (centres unmarked) [CHEMBL572882], the pEC50 is 7.12.

For the molecule `Cc1ccc(C(CCN(C)C)NC(=O)c2ccc(-c3ccc(Cl)cc3)cc2)cc1` (centres unmarked) [CHEMBL572883], the negative-log EC50 (pEC50) is 6.90.

Take `CN(C)CC[C@H](NC(=O)c1ccc(-c2ccc(Cl)cc2)cc1)c1ccc2ccccc2c1` [CHEMBL573392]: the pEC50 is 7.64.

Regarding `COc1ccc(-c2ccc(C(=O)NC(CCN(C)C)c3ccc(Cl)cc3)cc2)cc1` (centres unmarked) [CHEMBL573569], the pEC50 is 7.13.

In the case of `COc1ccc(-c2cccc(C(=O)NC(CCN(C)C)c3ccc4ccccc4c3)c2)cc1` (centres unmarked) [CHEMBL573574], the pEC50 was 6.19.

Regarding `CN(C)CCC(NC(=O)c1cccc(-c2ccc3ccccc3c2)c1)c1ccc(Cl)cc1` (centres unmarked) [CHEMBL573575], the pEC50 is 6.44.

`CN(C)CC[C@@H](NC(=O)c1ccc(-c2ccc(Cl)cc2)cc1)c1ccc2ccccc2c1` [CHEMBL573640]: the pEC50 was 6.34.

For the molecule `CN(C)CCC(NC(=O)c1ccc(-c2ccccc2)cc1)c1ccc2ccccc2c1` (centres unmarked) [CHEMBL574527], the pEC50 is 6.92.

`Cc1ccc(C(CCN(C)C)NC(=O)c2cccc(-c3ccc(Cl)cc3)c2)cc1` (centres unmarked) [CHEMBL574731]: the pEC50 is 6.19.

As for `COc1ccc(-c2ccc(C(=O)NC(CCN(C)C)c3ccc(C)cc3)cc2)cc1` (centres unmarked) [CHEMBL575629], the pEC50 was 6.46.

With `Cc1ccc(C(CCN(C)C)NC(=O)c2ccc(-c3ccc4ccccc4c3)cc2)cc1` (centres unmarked) [CHEMBL575630], the pEC50 was 6.09.

On to `CN(C)CCC(NC(=O)c1cccc(-c2ccccc2)c1)c1ccc2ccccc2c1` (centres unmarked) [CHEMBL575819], for which the pEC50 is 6.27.

On to `CN(C)CCCC(NC(=O)c1ccc(-c2ccccc2)cc1)c1ccc(Cl)cc1` (centres unmarked) [CHEMBL576746], for which the pEC50 is 6.50.
